Measured values from PMC7515950, “Physiologically based pharmacokinetic modeling to assess metabolic drug–drug interaction risks and inform the drug label for fedratinib” (Cancer Chemotherapy and Pharmacology, 2020).
Read-outs that look alike come from different tables or passages of the source.

Key:
CYP3A4 = test: CYP3A induction in primary human hepatocytes (IHH0014); format: in vitro ADME
Source text: The induction effect of fedratinib on CYP3A gene expression was identified using human hepatocytes in primary culture. The reported kinetic data, i.e., concentration-dependent fold induction of CYP3A mRNA levels, were fitted to estimate the Indmax and IndC50 values for fedratinib with calibration against the induction effect observed for the positive control compound rifampin [9].

[1] = healthy subjects, cited from earlier work; for AUC (AUCinf) / Cmax: observation, ref Study TDU12620/INT12894
OATP1B3 = molecular target: T1, OATP1B3 (Homo sapiens, UniProt Q9NPD5); test: OATP1B3 inhibition, HEK-hOATP1B3 cells (TRE0075); format: in vitro ADME; design: expressed in transfected cells; host or cells: HEK^TR-hOATP1B3
T1 sequence (Q9NPD5 1-702): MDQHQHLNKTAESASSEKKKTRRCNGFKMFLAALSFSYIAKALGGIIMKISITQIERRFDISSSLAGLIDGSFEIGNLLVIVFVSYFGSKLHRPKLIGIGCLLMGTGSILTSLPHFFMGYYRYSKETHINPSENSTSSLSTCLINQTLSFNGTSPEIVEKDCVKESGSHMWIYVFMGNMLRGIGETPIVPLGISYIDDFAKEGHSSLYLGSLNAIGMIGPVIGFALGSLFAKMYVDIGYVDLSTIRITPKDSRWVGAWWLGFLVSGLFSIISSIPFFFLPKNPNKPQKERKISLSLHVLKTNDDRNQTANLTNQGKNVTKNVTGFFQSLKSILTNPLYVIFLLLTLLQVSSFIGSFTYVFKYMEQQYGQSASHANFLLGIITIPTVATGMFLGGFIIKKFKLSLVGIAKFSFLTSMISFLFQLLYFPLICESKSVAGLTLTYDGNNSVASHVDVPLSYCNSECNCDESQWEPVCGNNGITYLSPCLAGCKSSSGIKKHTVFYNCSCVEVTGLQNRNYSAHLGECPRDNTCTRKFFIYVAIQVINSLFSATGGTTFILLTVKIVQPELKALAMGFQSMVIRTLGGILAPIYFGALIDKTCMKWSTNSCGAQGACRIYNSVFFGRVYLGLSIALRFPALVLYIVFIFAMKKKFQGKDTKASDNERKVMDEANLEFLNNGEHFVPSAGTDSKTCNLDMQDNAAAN
Source text: (§1) The reported IC50 values were converted to Ki values using the Cheng-Prusoff equation [10]:
(§2) The transporter inhibition parameters (Ki) for fedratinib were derived from the experimentally determined IC50 values using the Cheng-Prusoff equation, i.e., Ki = IC50/(1+[S]/Km) with the substrate concentrations ([S]) reported in the experimental studies and the substrate Km values collected from literature, as summarized in Table 13.

Caco-2/TC7 = Caco-2/TC7 permeability (Study AIV0208); format: in vitro ADME, human; conditions: Apical pH:Basolateral pH 7.4:7.4; Simcyp input
Source text: (§3) By default, the QGut is set to be the mean value (i.e., 6.5 L/h) in the PBPK model of fedratinib.

[2] = Caco-2/TC7 permeability (Study AIV0208); format: in vitro ADME, human; conditions: human, Caco-2
Source text: as §3

[3] = Biliary excretion in bile-duct cannulated rats (PDM-07-10348-059); format: in vivo; conditions: iv 5 mg/kg
Source text: The biliary excretion of unchanged drug accounts for 2.3% of the total intravenous dose in bile-duct cannulated (BDC) rats.

CYP2C9 = molecular target: T2, CYP2C9 (Homo sapiens, UniProt P11712); test: CYP inhibition in human liver microsomes (MIH0887), CYP2C9; format: in vitro ADME; conditions: HLM, apparent Ki, reversible inhibition
T2 construct: from tissue; host or cells: human liver microsomes
Experimental: (§4) The CYP enzyme reverse inhibition and mechanism-based inhibition (MBI) parameters were estimated in the human liver microsome (HLM) incubation in vitro studies. The reported reversible inhibition parameter (i.e., apparent Ki) values for CYP2C8, CYP2C9, and CYP2D6, along with the MBI parameters (i.e., KI or Kapp and kinact) for CYP2C19 and CYP3A4, were supplied to the PBPK DDI model (see Table 2).

OCT2 = molecular target: T3, OCT2 (Homo sapiens, UniProt O15244); test: OCT2 inhibition, CHO-hOCT2 cells (TRI0013); format: in vitro ADME; design: expressed in transfected cells; host or cells: CHO^Fi-hOCT2
T3 sequence (O15244 1-555): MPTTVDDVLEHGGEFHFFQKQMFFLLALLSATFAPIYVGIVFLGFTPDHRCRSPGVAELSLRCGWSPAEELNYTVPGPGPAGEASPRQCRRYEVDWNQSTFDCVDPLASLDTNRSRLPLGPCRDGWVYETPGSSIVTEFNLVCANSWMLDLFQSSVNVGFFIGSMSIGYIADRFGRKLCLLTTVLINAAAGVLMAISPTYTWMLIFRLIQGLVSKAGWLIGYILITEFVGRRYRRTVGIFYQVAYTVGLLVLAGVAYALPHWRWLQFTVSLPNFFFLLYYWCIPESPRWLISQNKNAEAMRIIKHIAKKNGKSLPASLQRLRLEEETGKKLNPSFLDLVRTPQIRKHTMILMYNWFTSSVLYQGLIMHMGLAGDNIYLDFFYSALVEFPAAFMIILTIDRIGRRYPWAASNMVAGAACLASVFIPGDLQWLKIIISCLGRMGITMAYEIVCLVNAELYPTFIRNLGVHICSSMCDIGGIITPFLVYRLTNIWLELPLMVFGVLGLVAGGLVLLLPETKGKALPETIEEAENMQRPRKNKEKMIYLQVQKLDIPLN
Source text: as §1, §2

CYP2D6 = molecular target: T4, CYP2D6 (Homo sapiens, UniProt P10635); test: CYP inhibition in human liver microsomes (MIH0887), CYP2D6; format: in vitro ADME; conditions: HLM, apparent Ki, reversible inhibition
T4 construct: from tissue; host or cells: human liver microsomes
Experimental: as §4

T2 sequence (P11712 whole entry): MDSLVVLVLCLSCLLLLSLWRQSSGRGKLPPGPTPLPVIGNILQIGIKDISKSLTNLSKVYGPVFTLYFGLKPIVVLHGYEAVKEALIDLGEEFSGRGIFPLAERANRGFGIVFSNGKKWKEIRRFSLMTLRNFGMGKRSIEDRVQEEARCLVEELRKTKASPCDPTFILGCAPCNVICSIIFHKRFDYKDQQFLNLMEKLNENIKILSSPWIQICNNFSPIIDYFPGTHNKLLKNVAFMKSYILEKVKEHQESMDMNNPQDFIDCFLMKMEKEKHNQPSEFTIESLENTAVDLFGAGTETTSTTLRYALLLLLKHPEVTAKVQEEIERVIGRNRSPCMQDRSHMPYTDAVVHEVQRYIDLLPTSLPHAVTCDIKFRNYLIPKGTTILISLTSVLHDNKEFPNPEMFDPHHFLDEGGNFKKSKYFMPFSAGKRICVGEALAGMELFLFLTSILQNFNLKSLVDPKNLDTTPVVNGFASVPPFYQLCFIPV
T4 sequence (P10635 whole entry): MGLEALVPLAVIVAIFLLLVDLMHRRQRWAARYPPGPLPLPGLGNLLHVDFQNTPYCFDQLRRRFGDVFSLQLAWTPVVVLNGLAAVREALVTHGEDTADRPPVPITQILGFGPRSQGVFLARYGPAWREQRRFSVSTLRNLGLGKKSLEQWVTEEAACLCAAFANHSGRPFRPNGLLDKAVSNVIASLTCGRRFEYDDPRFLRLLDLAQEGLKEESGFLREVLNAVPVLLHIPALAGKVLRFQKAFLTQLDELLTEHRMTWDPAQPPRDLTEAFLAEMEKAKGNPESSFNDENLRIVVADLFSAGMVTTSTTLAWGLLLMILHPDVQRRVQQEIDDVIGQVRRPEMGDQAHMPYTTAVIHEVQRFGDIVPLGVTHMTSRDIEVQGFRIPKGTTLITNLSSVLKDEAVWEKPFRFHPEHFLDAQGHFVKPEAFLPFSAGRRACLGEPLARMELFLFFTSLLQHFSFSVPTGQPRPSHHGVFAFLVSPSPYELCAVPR

CYP3A4 Ind max (CYP3A4; Simcyp input): 78.000
EC50 (CYP3A4; human, human hepatocytes in primary culture, CYP3A mRNA, fitted, calibrated against rifampin, read-out: CYP3A4 IndC50): 5.3 µM
CYP3A Indmax (CYP3A4; maximal fold induction over vehicle, CYP3A mRNA, calibrated against rifampin): 78.0
Ki (OATP1B3; from IC50 by Cheng-Prusoff, probe CCK8): 8.4 µM
IC50 (OATP1B3; probe CCK8 0.5 μM): 9.51 µM
PCaco-2 (Caco-2/TC7): 17.800 10E-06 cm/s
Papp at 40 μM ([2]; Apical pH:Basolateral pH 6.5:7.4, 40 μM fedratinib): 0.21 ×10⁻⁶ cm/s
Papp at 100 μM ([2]; Apical pH:Basolateral pH 7.4:7.4, 100 μM fedratinib): 17.8 ×10⁻⁶ cm/s
biliary excretion of unchanged drug, percent of total intravenous dose [3]: 2.3%
Ki (CYP2C9): 26.1 µM
Ki (OCT2; from IC50 by Cheng-Prusoff, probe metformin): 0.71 µM
IC50 (OCT2; probe metformin 25 μM): 0.78 µM
Ki (CYP2D6): 10.1 µM
SMILES: Cc1cnc(Nc2ccc(OCCN3CCCC3)cc2)nc1Nc1cccc(S(=O)(=O)NC(C)(C)C)c1 [Fedratinib]
AUC (AUCinf) ([1]; 300 mg single dose, GM): 6530 ng·h/mL
Cmax ([1]; 300 mg single dose, GM): 497 ng/mL
AUC (AUCinf) ([1]; 300 mg single dose, Mean (SD)): 6730 (1990) ng/mL·h
Cmax ([1]; 300 mg single dose, Mean (SD)): 521 (189) ng/mL
AUC (AUCinf) ([1]; 500 mg single dose, GM): 13200 ng·h/mL
Cmax ([1]; 500 mg single dose, GM): 683 ng/mL
AUC (AUCinf) ([1]; 500 mg single dose, Mean (SD)): 13900 (5240) ng/mL·h
Cmax ([1]; 500 mg single dose, Mean (SD)): 720 (243) ng/mL
dose-normalized AUC ([1]; single doses above 100 mg, ref [3]): 30 ng·h/mL/mg
